In patent publication US10329289B2, “6,7-dihydro-5H-pyrrolo[3,4-B]pyridin-5-one allosteric modulators of the M4 muscarinic acetylcholine receptor” (Merck Sharp & Dohme Corp., priority 2015, dated 2019):

Molecular target: T1, human M4 muscarinic acetylcholine receptor (Homo sapiens, UniProt P08173)
T1 construct: expressed in transfected cells; host or cells: CHO-K1
T1 sequence (P08173 1-479): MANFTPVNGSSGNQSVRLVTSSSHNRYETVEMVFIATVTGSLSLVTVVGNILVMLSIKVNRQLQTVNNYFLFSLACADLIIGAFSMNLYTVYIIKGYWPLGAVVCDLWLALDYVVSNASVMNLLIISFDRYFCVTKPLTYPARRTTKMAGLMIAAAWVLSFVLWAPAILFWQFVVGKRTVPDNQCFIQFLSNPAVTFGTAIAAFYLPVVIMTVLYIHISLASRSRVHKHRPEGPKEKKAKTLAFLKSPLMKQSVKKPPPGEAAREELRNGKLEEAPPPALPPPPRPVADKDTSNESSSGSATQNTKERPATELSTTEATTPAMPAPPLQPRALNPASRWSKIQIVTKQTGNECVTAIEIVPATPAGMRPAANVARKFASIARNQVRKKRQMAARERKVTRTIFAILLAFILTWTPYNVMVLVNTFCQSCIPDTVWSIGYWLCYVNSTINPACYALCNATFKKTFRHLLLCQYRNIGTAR
Experiment: human FLIPR-based M4 PAM assay (Ca2+ mobilization, CHO-K1 cells with human M4 receptor and Gαqi5)
Assay type: cell-based
Conditions: acetylcholine at 20% of maximum response, read-out: M4 PAM IP
Summary of the method: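 Calcium-mobilization (FLIPR) readout in dye-loaded CHO-K1 cells co-expressing human M4 receptor and Gαqi5. Potentiation measured against acetylcholine at a concentration giving 20% of maximal response, with an optional 70% addition; the reported value is the curve inflection point from a 4-parameter logistic fit.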

Point of comparison: `Cc1cc2c(nc1N1CC[C@@H](Oc3ccc4c(c3)C(=O)N(C)C4)[C@@H](F)C1)CNC2=O` [Example 163, 2-((3S,4R)-3-fluoro-4-((2-methyl-3-oxoisoindolin-5-yl)oxy)piperidin-1-yl)-3-methyl-6,7-dihydro-5H-pyrrolo[3,4-b]pyridin-5-one], EC50 277 nM. Against it:
- Cc1c(N2CC[C@@H](OCC3(C)CC3)[C@@H](F)C2)nc2c(c1C)C(=O)N(CCO)C2 [Example 268F, 2-((3S,4R)-3-fluoro-4-((1-methylcyclopropyl)methoxy)piperidin-1-yl)-6-(2-hydroxyethyl)-3,4-dimethyl-6,7-dihydro-5H-pyrrolo[3,4-b]pyridin-5-one] — 7.1-fold lower, 39 nM
- Cc1cc2c(nc1N1CCC(OC[C@@]3(C)C[C@H]3F)CC1)CNC2=O (single isomer, unassigned) [Example 160B] — 2.9-fold lower, 96 nM
- Cc1cc2c(nc1N1CCC(Oc3ccc(NCCO)nc3)CC1)CNC2=O [Example 324E, 2-(4-((6-((2-Hydroxyethyl)amino)pyridin-3-yl)oxy)piperidin-1-yl)-3-methyl-6,7-dihydro-5H-pyrrolo[3,4-b]pyridin-5-one] — 1.5-fold higher, 420 nM
- Cc1cc2c(nc1N1CCC(Oc3ccc4nc(C)n(C)c4c3)CC1)CNC2=O [Example 210, 2-(4-((1,2-dimethyl-1H-benzo[d]imidazol-6-yl)oxy)piperidin-1-yl)-3-methyl-6,7-dihydro-5H-pyrrolo[3,4-b]pyridin-5-one] — 9.3-fold higher, 2580 nM
- Cc1cc2c(nc1N1CCC(Oc3ccc4c(c3)COC4)CC1)CN(CC(C)O)C2=O (single isomer, unassigned) [Example 238A, (R) or (S)-2-(4-((1,3-dihydro-2-benzofuran-5-yl)oxy)piperidin-1-yl)-6-(2-hydroxypropyl)-3-methyl-6,7-dihydro-5H-pyrrolo[3,4-b]pyridin-5-one] — 3.2-fold lower, 87 nM
- COc1ccc(OC2CCN(c3nc4c(cc3C)C(=O)N(CCO)C4)CC2)cn1 [Example 238, 6-(2-hydroxyethyl)-2-(4-((6-methoxypyridin-3-yl)oxy)piperidin-1-yl)-3-methyl-6,7-dihydro-5H-pyrrolo[3,4-b]pyridin-5-one] — 5.7-fold lower, 49 nM
- Cc1c(N2CCC(Oc3cnn(C)c3)CC2)nc2c(c1C)C(=O)NC2 [Example 331, 3,4-dimethyl-2-(4-((1-methyl-1H-pyrazol-4-yl)oxy)piperidin-1-yl)-6,7-dihydro-5H-pyrrolo[3,4-b]pyridin-5-one] — 8.4-fold lower, 33 nM
- COc1cncc(OC2CCN(c3nc4c(cc3C)C(=O)NC4)CC2)c1 [Example 101, 2-(4-((5-methoxypyridin-3-yl)oxy)piperidin-1-yl)-3-methyl-6,7-dihydro-5H-pyrrolo[3,4-b]pyridin-5-one] — 3.1-fold higher, 869 nM
- Cc1cc2c(nc1N1CCC(Oc3ccc4c(c3)CCC(C)(C)O4)CC1)CNC2=O [Example 127, 2-(4-((2,2-dimethylchroman-6-yl)oxy)piperidin-1-yl)-3-methyl-6,7-dihydro-5H-pyrrolo[3,4-b]pyridin-5-one] — 1.7-fold higher, 480 nM
- Cc1cc2c(nc1N1CCC(Oc3ccc4c(c3)CCOC4=O)CC1)CNC2=O [Example 121, 3-methyl-2-(4-((1-oxoisochroman-6-yl)oxy)piperidin-1-yl)-6,7-dihydro-5H-pyrrolo[3,4-b]pyridin-5-one] — 6.9-fold higher, 1920 nM
- COc1ccc(OC2CCN(c3nc4c(cc3C3CC3)C(=O)NC4)CC2)cn1 [Example 221, 3-cyclopropyl-2-(4-((6-methoxypyridin-3-yl)oxy)piperidin-1-yl)-6,7-dihydro-5H-pyrrolo[3,4-b]pyridin-5-one] — 3.9-fold higher, 1080 nM
- Cc1cc2c(nc1N1CCC(Oc3ccc4[nH]ncc4c3)CC1)CN(C)C2=O [Example 12, 2-(4-((1H-indazol-5-yl)oxy)piperidin-1-yl)-3,6-dimethyl-6,7-dihydro-5H-pyrrolo[3,4-b]pyridin-5-one] — 17-fold lower, 16 nM
- Cc1cc2c(nc1N1CCC(Oc3ccc4c(c3)COCC4)CC1)[C@H](CO)N(C)C2=O [Example 350, (R)-7-(hydroxymethyl)-2-(4-(isochroman-7-yloxy)piperidin-1-yl)-3,6-dimethyl-6,7-dihydro-5H-pyrrolo[3,4-b]pyridin-5-one] — 3.5-fold higher, 980 nM
- Cc1cc2c(nc1N1CCC(Oc3ccncc3)CC1)CNC2=O [Example 77, 3-methyl-2-(4-(pyridin-4-yloxy)piperidin-1-yl)-6,7-dihydro-5H-pyrrolo[3,4-b]pyridin-5-one] — within 1.5-fold, 214 nM
- Cc1cc2c(nc1N1CCC(Oc3ccc(C(F)(F)F)nc3)CC1)CNC2=O [Example 88, 3-methyl-2-(4-((6-(trifluoromethyl)pyridin-3-yl)oxy)piperidin-1-yl)-6,7-dihydro-5H-pyrrolo[3,4-b]pyridin-5-one] — within 1.5-fold, 381 nM
- Cc1cc2c(nc1N1CCC(Oc3cccc(C#N)c3)CC1)CN(C(C)C)C2=O [Example 246, 3-((1-(6-isopropyl-3-methyl-5-oxo-6,7-dihydro-5H-pyrrolo[3,4-b]pyridin-2-yl)piperidin-4-yl)oxy)benzonitrile] — 2.2-fold lower, 125 nM
- COc1ccc(OC2CCN(c3nc4c(cc3C)C(=O)N(C)[C@H]4C(C)(C)O)CC2)cn1 [Example 323A, (R)-7-(2-Hydroxypropan-2-yl)-2-(4-((6-methoxpyridin-3-yl)oxy)piperidin-1-yl)-3,6-dimethyl-6,7-dihydro-5H-pyrrolo[3,4-b]pyridin-5-one] — within 1.5-fold, 261 nM
- Cc1cc2c(nc1N1CCC(Oc3ccc4c(c3)OCCN4)CC1)CNC2=O [Example 148, 2-(4-((3,4-dihydro-2H-benzo[b][1,4]oxazin-7-yl)oxy)piperidin-1-yl)-3-methyl-6,7-dihydro-5H-pyrrolo[3,4-b]pyridin-5-one] — 8.9-fold lower, 31 nM
- Cc1cc2c(nc1N1CCC(Oc3ccc4[nH]ncc4c3)CC1)CNC2=O [Example 167, 2-(4-((1H-indazol-5-yl)oxy)piperidin-1-yl)-3-methyl-6,7-dihydro-5H-pyrrolo[3,4-b]pyridin-5-one] — 20-fold lower, 14 nM
- Cc1cc2c(nc1N1CCC(Oc3cccc(C#N)c3)CC1)CN(C1CC1)C2=O [Example 249, 3-((1-(6-cyclopropyl-3-methyl-5-oxo-6,7-dihydro-5H-pyrrolo[3,4-b]pyridin-2-yl)piperidin-4-yl)oxy)benzonitrile] — 8.7-fold lower, 32 nM
- Cc1cc2c(nc1N1CCC(Oc3ccnc(CO)c3)CC1)CNC2=O [Example 152, 2-(4-((2-(hydroxymethyl)pyridin-4-yl)oxy)piperidin-1-yl)-3-methyl-6,7-dihydro-5H-pyrrolo[3,4-b]pyridin-5-one] — 4.2-fold higher, 1150 nM
- COc1ccc(OC2CCN(c3nc4c(cc3C=O)C(=O)NC4)CC2)cn1 [Example 306, 2-(4-((6-Methoxypyridin-3-yl)oxy)piperidin-1-yl)-5-oxo-6,7-dihydro-5H-pyrrolo[3,4-b]pyridine-3-carbaldehyde] — within 1.5-fold, 320 nM
- Cc1c(N2CC[C@@H](Oc3cnc4c(c3)COC4)[C@@H](F)C2)nc2c(c1C)C(=O)NC2 [Example 165A, 2-((3S,4R)-4-((5,7-dihydrofuro[3,4-b]pyridin-3-yl)oxy)-3-fluoropiperidin-1-yl)-3,4-dimethyl-6,7-dihydro-5H-pyrrolo[3,4-b]pyridin-5-one] — 3.3-fold lower, 83 nM
- CCc1cc2c(nc1N1CCC(Oc3cccnc3)CC1)CNC2=O [Example 201, 3-ethyl-2-(4-(pyridin-3-yloxy)piperidin-1-yl)-6,7-dihydro-5H-pyrrolo[3,4-b]pyridin-5-one] — within 1.5-fold, 230 nM
- Cc1cc2c(nc1N1CCC(OC[C@]3(C)C[C@@H]3F)CC1)CNC2=O (single isomer, unassigned) [Example 160A] — 2.3-fold higher, 627 nM
- Cc1cc2c(nc1N1CCC(OCC(O)C(F)(F)F)CC1)CNC2=O (single isomer, unassigned) [Example 181B] — 1.5-fold lower, 183 nM
- Cc1cc2c(nc1N1CCC(Oc3ccc4c(c3)CCO4)CC1)CNC2=O [Example 109, 2-(4-((2,3-dihydrobenzofuran-5-yl)oxy)piperidin-1-yl)-3-methyl-6,7-dihydro-5H-pyrrolo[3,4-b]pyridin-5-one] — 14-fold lower, 20 nM
- COc1ccc(OC2CCN(c3nc4c(cc3C)C(=O)N(CCO)C4CO)CC2)cn1 (stereo not drawn) [Example 375, 6-(2-Hydroxyethyl)-7-(hydroxymethyl)-2-(4-((6-methoxypyridin-3-yl)oxy)piperidin-1-yl)-3-methyl-6,7-dihydro-5H-pyrrolo[3,4-b]pyridin-5-one] — 4-fold lower, 69 nM
- Cc1cc2c(nc1N1CCC(Oc3ccc4c(c3)C(=O)N(C)CC4)CC1)CNC2=O [Example 138, 2-methyl-7-((1-(3-methyl-5-oxo-6,7-dihydro-5H-pyrrolo[3,4-b]pyridin-2-yl)piperidin-4-yl)oxy)-3,4-dihydroisoquinolin-1(2H)-one] — within 1.5-fold, 390 nM
- CCc1cc2c(nc1N1CCC(Oc3ccc4c(cnn4C)c3)CC1)[C@H](CO)N(C)C2=O [Example 364, (R)-3-ethyl-7-(hydroxymethyl)-6-methyl-2-(4-((1-methyl-1H-indazol-5-yl)oxy)piperidin-1-yl)-6,7-dihydro-5H-pyrrolo[3,4-b]pyridin-5-one] — 14-fold higher, 3770 nM
- Cc1cc2c(nc1N1CCC(Oc3ccc4[nH]nc(Br)c4c3)CC1)CNC2=O [Example 315, 2-(4-((3-bromo-1H-indazol-5-yl)oxy)piperidin-1-yl)-3-methyl-6,7-dihydro-5H-pyrrolo[3,4-b]pyridin-5-one] — 3.5-fold lower, 80 nM
- Cc1cc2c(nc1N1CCC(OCC3(O)CC3)CC1)CNC2=O [Example 312B, 2-(4-((1-hydroxycyclopropyl)methoxy)piperidin-1-yl)-3-methyl-6,7-dihydro-5H-pyrrolo[3,4-b]pyridin-5-one] — 4-fold higher, 1120 nM
